A short description of test [1]: Enzyme kinetic inhibition constant against tripeptide, Hip-His-Leu as substrate.
The species named for another test is Cavia porcellus. The test can be described thus: Compound is evaluated for the inhibition of guinea pig ileum contraction caused by 25 ng/mL angiotensin I. It counts as functional, organism-based.
The nature of test [2]: Enzyme kinetic inhibition constant against tripeptide, Angiotensin I as substrate in a competition inhibition assay.

With `O=C(N[C@@H](Cc1ccccc1)C(=O)CCC(=O)N1CCC[C@H]1C(=O)O)c1ccccc1`, the inhibition constant Ki (usually a measure of affinity in units of concentration, obtained from inhibition or displacement) stood at 106 nM in test [1] and 870 nM in test [2]. For the same compound, the IC50 (as a rule, the midpoint of a concentration-inhibition curve) in the test listed under Cavia porcellus came out at 0.5 µg/mL.
On to `C[C@H](CS)C(=O)N1CCC[C@H]1C(=O)O` [CAPTOPRIL], for which, in test [1], affinity was put at a Ki of 71.5 nM. Besides, the IC50 in the test filed under Cavia porcellus came out at 0.05 µg/mL.

Source of the values: ChEMBL document CHEMBL1121370, “Synthesis and biological activity of a ketomethylene analogue of a tripeptide inhibitor of angiotensin converting enzyme” (J Med Chem, 1980).
